In US8124793B2, “Derivatives of ethylene methanedisulfonate as cancer chemotherapeutic agents” (priority 2007, dated 2012):

What was measured:
Type in all cases: cell-based
MCF7/ADR-RES = test: NCI screen, growth of human tumor cells: Breast Cancer MCF7/ADR-RES; settings: MCF7/ADR-RES (Breast Cancer), 10^−4 molar
How it was run: (§1)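 Under the NCI protocol, every compound is profiled with sixty or more data points. Each point ties a cancer type and a molar screening concentration to a percent growth value.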

HCC-2998 = test: NCI screen, growth of human tumor cells: HCC-2998 (listed under Non-Small Cell Lung); settings: HCC-2998, 10^−4 molar
How it was run: as §1

NCI-H23 = test: NCI screen, growth of human tumor cells: Non-Small Cell Lung NCI-H23; settings: NCI-H23, 10^−4 molar
How it was run: as §1

AS49/ATCC = test: NCI screen, growth of human tumor cells: Non-Small Cell Lung AS49/ATCC; settings: A549/ATCC, 10^−4 molar
How it was run: as §1

NCI-H522 = test: NCI screen, growth of human tumor cells: Non-Small Cell Lung NCI-H522
How it was run: as §1

LOXIMVI = test: NCI screen, growth of human tumor cells: Melanoma LOXIMVI; settings: LOXIMVI
How it was run: as §1

UACC-257 = test: NCI screen, growth of human tumor cells: Melanoma UACC-257; settings: UACC-257, 10^−4 molar
How it was run: as §1

KM12 = test: NCI screen, growth of human tumor cells: Colon Cancer KM12; settings: KM12, 10^−4 molar
How it was run: as §1

human cancer cells = test: NCI screen summary over the cancers tested (negative growth of human cancer cells); settings: cancers with negative growth / cancers tested
Method: In the NCI screening process, each compound was tested and described by a minimum of 60 data points. The test data include, but are not limited to the type of cancer, the molar concentration used in the screen, and the percent growth of the cancer. In some cases, NMR and elemental analysis were used for structural assignment.
The derivatives in the tables are grouped using the same category as in the tables 1-6.

EKVX = test: NCI screen, growth of human tumor cells: Non-Small Cell Lung EKVX; settings: EKVX, 10^−4 molar
How it was run: as §1

MDA-MB-435 = test: NCI screen, growth of human tumor cells: Breast Cancer MDA-MB-435; settings: MDA-MB-435, 10^−4 molar
How it was run: as §1

SF-295 = test: NCI screen, growth of human tumor cells: CNS Cancer SF-295; settings: SF-295, 10^−4 molar
How it was run: as §1

HCT-15 = test: NCI screen, growth of human tumor cells: Colon Cancer HCT-15; settings: HCT-15, 10^−4 molar
How it was run: as §1

COLO205 = test: NCI screen, growth of human tumor cells: Colon Cancer COLO205
How it was run: as §1

BT-549 = test: NCI screen, growth of human tumor cells: Breast Cancer BT-549; settings: BT-549, 10^−4 molar
How it was run: as §1

U-251 = test: NCI screen, growth of human tumor cells: CNS Cancer U-251
How it was run: as §1

OVCAR-5 = test: NCI screen, growth of human tumor cells: Ovarian Cancer OVCAR-5; settings: OVCAR-5 (Ovarian Cancer), 10^−4 molar
How it was run: as §1

HT29 = test: NCI screen, growth of human tumor cells: Colon Cancer HT29; settings: HT29 (Colon Cancer), 10^−4 molar
How it was run: as §1

MALME-3M = test: NCI screen, growth of human tumor cells: Melanoma MALME-3M; settings: MALME-3M
How it was run: as §1

MDA-MB-231/ATCC = test: NCI screen, growth of human tumor cells: Breast Cancer MDA-MB-231/ATCC; settings: MDA-MB-231 (ATCC)
How it was run: as §1

SNB-75 = test: NCI screen, growth of human tumor cells: CNS Cancer SNB-75
How it was run: as §1

OVCAR-8 = test: NCI screen, growth of human tumor cells: Ovarian Cancer OVCAR-8; settings: OVCAR-8, 10^−4 molar
How it was run: as §1

TK-10 = test: NCI screen, growth of human tumor cells: Renal Cancer TK-10; settings: TK-10 (Renal Cancer), 10^−4 molar
How it was run: as §1

OVCAR-3 = test: NCI screen, growth of human tumor cells: Ovarian Cancer OVCAR-3; settings: OVCAR-3, 10^−4 molar
How it was run: as §1

CAKI-1 = test: NCI screen, growth of human tumor cells: Renal Cancer CAKI-1; settings: CAKI-1 (Renal Cancer), 10^−4 molar
How it was run: as §1

SF-539 = test: NCI screen, growth of human tumor cells: CNS Cancer SF-539
How it was run: as §1

OVCAR-4 = test: NCI screen, growth of human tumor cells: Ovarian Cancer OVCAR-4; settings: OVCAR-4, 10^−4 molar
How it was run: as §1

SR = test: NCI screen, growth of human tumor cells: Leukemia SR; settings: SR
How it was run: as §1

PC-3 = test: NCI screen, growth of human tumor cells: Prostate Cancer PC-3
How it was run: as §1

SF-268 = test: NCI screen, growth of human tumor cells: CNS Cancer SF-268
How it was run: as §1

SNB-19 = test: NCI screen, growth of human tumor cells: CNS Cancer SNB-19
How it was run: as §1

CCRF-CEM = test: NCI screen, growth of human tumor cells: Leukemia CCRF-CEM; settings: CCRF-CEM
How it was run: as §1

NCI-H322M = test: NCI screen, growth of human tumor cells: Non-Small Cell Lung NCI-H322M; settings: NCI-H322M, 10^−4 molar
How it was run: as §1

SMILES: CC(=O)C1(CC2=C(C)C(=O)c3ccccc3C2=O)S(=O)(=O)OCCOS1(=O)=O [NSC 701690]
- percent of growth of human tumor cells (MCF7/ADR-RES): −40%
- % Growth (HCC-2998): −100%
- % Growth (NCI-H23): −91%
- % Growth (AS49/ATCC): −97%
- % Growth (NCI-H522; NCI-H522, 10^−4 molar): −100%
- % Growth (NCI-H522; NCI-H522, 10^−5 molar): 35%
- % Growth (NCI-H522; NCI-H522, 10^−6 molar): 57%
- % Growth (NCI-H522; NCI-H522, 10^−7 molar): 77%
- % Growth (NCI-H522; NCI-H522, 10^−8 molar): 67%
- % Growth (LOXIMVI; 10^−4 molar): −100%
- % Growth (LOXIMVI; 10^−5 molar): 36%
- % Growth (UACC-257): −83%
- % Growth (KM12): −71%
- Percentage of cancers showing negative growth cancers tested (human cancer cells; 10^−4 M conc.): 100%
- Percentage of cancers showing negative growth cancers tested (human cancer cells; 10^−5 M conc.): 5%
- Percentage of cancers showing negative growth cancers tested (human cancer cells; 10^−6 M conc.): 14%
- % Growth (EKVX): −91%
- % Growth (MDA-MB-435): −95%
- % Growth (SF-295): −100%
- % Growth (HCT-15): −100%
- % Growth (COLO205; COLO205, 10^−4 molar): −100%
- % Growth (COLO205; COLO205, 10^−5 molar): 60%
- % Growth (COLO205; COLO205, 10^−6 molar): 58%
- % Growth (BT-549): −100%
- % Growth (U-251; U251, 10^−4 molar): −100%
- % Growth (U-251; U251, 10^−5 molar): 42%
- % Growth (U-251; U251, 10^−6 molar): 53%
- % Growth (U-251; U251, 10^−7 molar): 46%
- % Growth (U-251; U251, 10^−8 molar): 62%
- percent of growth of human tumor cells (OVCAR-5): −53%
- percent of growth of human tumor cells (HT29): −25%
- % Growth (MALME-3M; 10^−4 molar): −100%
- % Growth (MALME-3M; 10^−5 molar): 38%
- % Growth (MALME-3M; 10^−6 molar): 43%
- % Growth (MDA-MB-231/ATCC; 10^−4 molar): −41%
- % Growth (MDA-MB-231/ATCC; 10^−5 molar): 39%
- % Growth (MDA-MB-231/ATCC; 10^−6 molar): 56%
- % Growth (MDA-MB-231/ATCC; 10^−7 molar): 58%
- % Growth (MDA-MB-231/ATCC; 10^−8 molar): 45%
- % Growth (SNB-75; SNB-75, 10^−4 molar): −100%
- % Growth (SNB-75; SNB-75, 10^−5 molar): 45%
- % Growth (OVCAR-8): −100%
- percent of growth of human tumor cells (TK-10): −8%
- % Growth (OVCAR-3): −73%
- percent of growth of human tumor cells (CAKI-1): −53%
- % Growth (SF-539; SF-539, 10^−4 molar): −100%
- % Growth (SF-539; SF-539, 10^−5 molar): 44%
- % Growth (OVCAR-4): −100%
- % Growth (SR; 10^−4 molar): −100%
- % Growth (SR; 10^−5 molar): −8%
- % Growth (SR; 10^−6 molar): 19%
- % Growth (PC-3; PC-3, 10^−4 molar): −38%
- % Growth (PC-3; PC-3, 10^−5 molar): 52%
- % Growth (PC-3; PC-3, 10^−6 molar): 59%
- % Growth (PC-3; PC-3, 10^−7 molar): 28%
- % Growth (PC-3; PC-3, 10^−8 molar): 28%
- % Growth (SF-268; SF-268, 10^−4 molar): −100%
- % Growth (SF-268; SF-268, 10^−5 molar): 40%
- % Growth (SF-268; SF-268, 10^−6 molar): 65%
- % Growth (SNB-19; SNB-19, 10^−4 molar): −47%
- % Growth (SNB-19; SNB-19, 10^−5 molar): 53%
- % Growth (CCRF-CEM; 10^−4 molar): −73%
- % Growth (CCRF-CEM; 10^−5 molar): 55%
- % Growth (NCI-H322M): −100%
